From patent US20050112573A1, “Method of detecting toxic substance” (priority 2001, published 2005)

Tested on: yeast genes (level of expressed mRNA)
Assay: DNA chip analysis of expressed mRNA of yeast genes after 2 h culture with a toxic chemical substance
Format: cell-based, Saccharomyces cerevisiae S288C
Method: Yeast (Saccharomyces cerevtisiae S288C (α SUC2mal mel gap2 CUP1)) were cultured at 25° C. on YPD medium (yeast extract 1%, polypepton 2%, glucose 2%). One of toxic chemical substances was added to the cell at logarithmic growth phase, and the cell was further cultured for two hours. Cell was cultured without any chemical substance in the same condition, and was used as control. Concentrations of the chemical substances were defined to inhibit the growth of the yeast but not lead to death.
After the completion of cultivation, the culture was centrifuged to collect the cells. To the cells, sodium acetate buffer (50 mM sodium acetate, 10 mM EDTA, 1% SDS) was added, and the mixture was shaken at 65° C. for five minutes, followed by returning to room temperature, and obtaining the supernatant, which procedure was repeated two times. To the supernatant, ½ amount of a solution of phenol/chloroform was added, and the mixture was centrifuged to give a supernatant, which was added with an equal amount of chloroform, and the mixture was centrifuged to give a supernatant. To the supernatant, an equal amount of isopropanol containing 0.3 M sodium acetate was added, and the mixture was allowed to stand at room temperature for 30 minutes, after which the mixture was centrifuged to give a sediment of the whole RNAs. Seventy % ethanol was added to the sediment, and the mixture was again centrifuged to give a sediment, which was then dried and dissolved in water. mRNA was isolated from the whole RNAs as followings. In view of the fact that a poly A chain is attached to the 3′ terminus of mRNA, a polynucleotide having a poly T structure which was immobilized on the surface of latex beads was used to trap the mRNA, and then the mRNA was washed and eluted with spine column (Oligotex-dT30<Super>mRNA Purification Kit, Takara). Reverse transcription of the mRNA was conducted with a reverse transcriptase (Super Script II Reverse Transcriptase; catalogue No. 18064-014, GibcoBRL) using fluorescence-labeled nucleotides to give cDNAs that were introduced with Cy3-dUTP or Cy5-dUTP during the reverse transcription.
The labeled cDNAs were dissolved in TE buffer (10 mM Tris-HCl/1 mM EDTA, pH8.0), and the solution was dropped on the DNA chip containing the whole genes of yeast (DNA Chip Research Inc. Japan) so that the cDNAs were hybridized on the DNA chip at 65° C. for over 12 hours. The fluoresces intensity of the DNA chip was read with a scanner, and the ratio relative to the fluorescence intensity resulting from the absence of chemical substance was estimated as the following, which is shown in Tables 1 to 9: [formula]
In the Tables, “Intensity” indicated in the rightmost column is a value of the level of expressed mRNA of each gene in control cells as divided by the average level of the expressions of the whole genes.

Oc1cc(Cl)c(Cl)cc1Cl [(6), 2,4,5-trichlorophenol]
The level of expressed mRNA in the presence of chemical substance/The level of expressed mRNA in the absence of chemical substance (yeast gene YKL013C): 1.9 | The level of expressed mRNA in the presence of chemical substance/The level of expressed mRNA in the absence of chemical substance (yeast gene YKL039W): 4.9 | The level of expressed mRNA in the presence of chemical substance/The level of expressed mRNA in the absence of chemical substance (yeast gene YKL041W): 2.2 | The level of expressed mRNA in the presence of chemical substance/The level of expressed mRNA in the absence of chemical substance (yeast gene YKL096W): 0.6 | The level of expressed mRNA in the presence of chemical substance/The level of expressed mRNA in the absence of chemical substance (yeast gene YKL165C): 0.6 | The level of expressed mRNA in the presence of chemical substance/The level of expressed mRNA in the absence of chemical substance (yeast gene YKL193C): 0.9 | The level of expressed mRNA in the presence of chemical substance/The level of expressed mRNA in the absence of chemical substance (yeast gene YLR120C): 1.9 | The level of expressed mRNA in the presence of chemical substance/The level of expressed mRNA in the absence of chemical substance (yeast gene YLR136C): 1.7 | The level of expressed mRNA in the presence of chemical substance/The level of expressed mRNA in the absence of chemical substance (yeast gene YLR178C): 4.2 | The level of expressed mRNA in the presence of chemical substance/The level of expressed mRNA in the absence of chemical substance (yeast gene YLR250W): 1.1 | The level of expressed mRNA in the presence of chemical substance/The level of expressed mRNA in the absence of chemical substance (yeast gene YLR327C): 5.1 | The level of expressed mRNA in the presence of chemical substance/The level of expressed mRNA in the absence of chemical substance (yeast gene YLR356W): 3.4 | The level of expressed mRNA in the presence of chemical substance/The level of expressed mRNA in the absence of chemical substance (yeast gene YLR362W): 0.8 | The level of expressed mRNA in the presence of chemical substance/The level of expressed mRNA in the absence of chemical substance (yeast gene YLR391W): 1.5 | The level of expressed mRNA in the presence of chemical substance/The level of expressed mRNA in the absence of chemical substance (yeast gene YLR429W): 0.8 | The level of expressed mRNA in the presence of chemical substance/The level of expressed mRNA in the absence of chemical substance (yeast gene YMR004W): 0.5 | The level of expressed mRNA in the presence of chemical substance/The level of expressed mRNA in the absence of chemical substance (yeast gene YMR094W): 0.5 | The level of expressed mRNA in the presence of chemical substance/The level of expressed mRNA in the absence of chemical substance (yeast gene YMR104C): 1.9 | The level of expressed mRNA in the presence of chemical substance/The level of expressed mRNA in the absence of chemical substance (yeast gene YMR219W): 0.8 | The level of expressed mRNA in the presence of chemical substance/The level of expressed mRNA in the absence of chemical substance (yeast gene YMR226C): 2.6 | The level of expressed mRNA in the presence of chemical substance/The level of expressed mRNA in the absence of chemical substance (yeast gene YMR275C): 1.4 | The level of expressed mRNA in the presence of chemical substance/The level of expressed mRNA in the absence of chemical substance (yeast gene YMR276W): 0.8 | The level of expressed mRNA in the presence of chemical substance/The level of expressed mRNA in the absence of chemical substance (yeast gene YMR314W): 1.3 | The level of expressed mRNA in the presence of chemical substance/The level of expressed mRNA in the absence of chemical substance (yeast gene YNL006W): 1.0 | The level of expressed mRNA in the presence of chemical substance/The level of expressed mRNA in the absence of chemical substance (yeast gene YNL007C): 0.6 | The level of expressed mRNA in the presence of chemical substance/The level of expressed mRNA in the absence of chemical substance (yeast gene YNL093W): 1.6 | The level of expressed mRNA in the presence of chemical substance/The level of expressed mRNA in the absence of chemical substance (yeast gene YNL333W): 1.5 | The level of expressed mRNA in the presence of chemical substance/The level of expressed mRNA in the absence of chemical substance (yeast gene YNR010W): 1.3 | The level of expressed mRNA in the presence of chemical substance/The level of expressed mRNA in the absence of chemical substance (yeast gene YNR069C): 1.7 | The level of expressed mRNA in the presence of chemical substance/The level of expressed mRNA in the absence of chemical substance (yeast gene YOL013C): 1.1 | The level of expressed mRNA in the presence of chemical substance/The level of expressed mRNA in the absence of chemical substance (yeast gene YOL164W): 1.2 | The level of expressed mRNA in the presence of chemical substance/The level of expressed mRNA in the absence of chemical substance (yeast gene YOR036W): 1.7 | The level of expressed mRNA in the presence of chemical substance/The level of expressed mRNA in the absence of chemical substance (yeast gene YOR117W): 1.1 | The level of expressed mRNA in the presence of chemical substance/The level of expressed mRNA in the absence of chemical substance (yeast gene YOR124C): 0.9 | The level of expressed mRNA in the presence of chemical substance/The level of expressed mRNA in the absence of chemical substance (yeast gene YOR132W): 1.6 | The level of expressed mRNA in the presence of chemical substance/The level of expressed mRNA in the absence of chemical substance (yeast gene YOR157C): 1.2 | The level of expressed mRNA in the presence of chemical substance/The level of expressed mRNA in the absence of chemical substance (yeast gene YOR181W): 0.9 | The level of expressed mRNA in the presence of chemical substance/The level of expressed mRNA in the absence of chemical substance (yeast gene YOR185C): 3.0 | The level of expressed mRNA in the presence of chemical substance/The level of expressed mRNA in the absence of chemical substance (yeast gene YOR198C): 0.9 | The level of expressed mRNA in the presence of chemical substance/The level of expressed mRNA in the absence of chemical substance (yeast gene YOR259C): 0.8 | The level of expressed mRNA in the presence of chemical substance/The level of expressed mRNA in the absence of chemical substance (yeast gene YOR261C): 1.4 | The level of expressed mRNA in the presence of chemical substance/The level of expressed mRNA in the absence of chemical substance (yeast gene YOR288C): 1.0 | The level of expressed mRNA in the presence of chemical substance/The level of expressed mRNA in the absence of chemical substance (yeast gene YOR355W): 1.6 | The level of expressed mRNA in the presence of chemical substance/The level of expressed mRNA in the absence of chemical substance (yeast gene YOR383C): 6.8 | The level of expressed mRNA in the presence of chemical substance/The level of expressed mRNA in the absence of chemical substance (yeast gene YPL089C): 0.8 | The level of expressed mRNA in the presence of chemical substance/The level of expressed mRNA in the absence of chemical substance (yeast gene YPL109C): 1.2 | The level of expressed mRNA in the presence of chemical substance/The level of expressed mRNA in the absence of chemical substance (yeast gene YPL149W): 0.9 | The level of expressed mRNA in the presence of chemical substance/The level of expressed mRNA in the absence of chemical substance (yeast gene YPL154C): 3.5 | The level of expressed mRNA in the presence of chemical substance/The level of expressed mRNA in the absence of chemical substance (yeast gene YPR103W): 1.2 | The level of expressed mRNA in the presence of chemical substance/The level of expressed mRNA in the absence of chemical substance (yeast gene YPR108W): 1.5
